One molecule from ChEMBL document CHEMBL1150545, “CP-71,362, an unusually potent inhibitor of rat and dog renin” (Bioorg Med Chem Lett, 1994) can be followed below.

As usually defined, the IC50 is the concentration needed to halve the response being measured. High values mean a need for much substance, low ones inhibition by little substance.

The species named for experiment [1] is Canis familiaris. As to the kind of experiment: Infusion rate producing half of the maximal decrease in renin dependent blood pressure in dogs. It counts as functional, Canis lupus familiaris.
Experiment [2] deals with Canis familiaris. As to the kind of experiment: Decrease in mean arterial pressure in anesthetized, sodium depleted dogs, at 3.7+/0.4 ug/Kg/min infusion rate. It counts as functional, Canis lupus familiaris, Artery.
The species entered for experiment [3] is Rattus norvegicus. The experiment can be described thus: Infusion rate producing a decrease in MAP of between 30 and 40 mmHg in the rat. Format: functional.
Experiment [4] deals with T1, Renin (Rattus norvegicus, UniProt P08424).
T1 sequence (P08424 whole entry): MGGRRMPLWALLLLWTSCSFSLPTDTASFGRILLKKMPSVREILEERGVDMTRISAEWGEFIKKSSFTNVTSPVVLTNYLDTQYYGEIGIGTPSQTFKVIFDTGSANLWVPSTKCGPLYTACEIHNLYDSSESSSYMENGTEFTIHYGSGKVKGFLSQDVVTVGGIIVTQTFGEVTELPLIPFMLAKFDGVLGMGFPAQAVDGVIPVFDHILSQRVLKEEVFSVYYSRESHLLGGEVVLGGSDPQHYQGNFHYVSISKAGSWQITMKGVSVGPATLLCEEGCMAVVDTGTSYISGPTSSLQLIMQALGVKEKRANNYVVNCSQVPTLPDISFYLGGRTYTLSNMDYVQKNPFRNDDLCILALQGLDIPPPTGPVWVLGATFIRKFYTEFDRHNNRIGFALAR
The experiment can be described thus: Compound was tested for its inhibitory activity against Rat plasma renin. It counts as cell-free.

The target in experiment [5] is T2, Renin (Homo sapiens, UniProt P00797).
T2 sequence (P00797 whole entry): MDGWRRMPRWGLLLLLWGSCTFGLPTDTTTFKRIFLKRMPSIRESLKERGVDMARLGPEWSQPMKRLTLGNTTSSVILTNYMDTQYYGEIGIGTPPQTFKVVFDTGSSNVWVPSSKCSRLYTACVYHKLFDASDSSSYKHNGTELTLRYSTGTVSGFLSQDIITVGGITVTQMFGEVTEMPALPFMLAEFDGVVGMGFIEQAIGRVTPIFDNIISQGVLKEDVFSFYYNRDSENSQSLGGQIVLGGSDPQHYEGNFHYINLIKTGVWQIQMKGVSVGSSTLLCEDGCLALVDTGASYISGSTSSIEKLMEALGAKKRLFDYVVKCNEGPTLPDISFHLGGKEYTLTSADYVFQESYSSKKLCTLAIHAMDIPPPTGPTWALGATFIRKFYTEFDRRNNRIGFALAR
The experiment can be described thus: Compound was tested for its inhibitory activity against human plasma renin. It counts as cell-free.

Another experiment concerns the target Renin (Canis familiaris). The experiment can be described thus: Compound was tested for its inhibitory activity against dog plasma renin.
For experiment [6], the species on record is Rattus norvegicus. The experiment can be described thus: Infusion rate producing half of the maximal decrease in renin dependent blood pressure in rats. It counts as functional.

*1 amine or outer side, *2 acyl side, *3 side chain or, on linkers, in order; H or OH if unused. Where a SMILES comes first, the peptide text is derived from it. [ ]: non-standard residue; d: D form. The star is where a group is joined. X1 = CC(C)C[C@H](C[C@H](O)[C@H](CC1CCCCC1)N[*:1])C(=O)[*:2]; Boc = CC(C)(C)OC(=O)*

In the case of `CC(=O)O.CC(C)C[C@H](C[C@H](O)[C@H](CC1CCCCC1)NC(=O)[C@H](Cc1c[nH]cn1)NC(=O)[C@H](Cc1ccccc1)NC(=O)OC(C)(C)C)C(=O)N[C@@H](CCCCN)C(=O)N[C@@H](Cc1ccccc1)C(=O)O` (Boc-FH[X1]KF-OH), the Infusion rate in the experiment filed under Canis familiaris [1] stood at 1.1 µg/min/kg; in the experiment listed under Rattus norvegicus [3], 30 µg/min/kg; in the experiment listed under Rattus norvegicus [6], 9.7 µg/min/kg. The molecule also came in with an MAP in the experiment with Canis familiaris [2] of 35 mmHg. In addition, the IC50 at Renin [4] was found to be 3 nM; on Renin [5], 20 nM; on Renin (Canis familiaris) it was 0.03 nM.
